In patent US10556907B2 (AbbVie Inc., priority 2015, dated 2020):
Counter-ions that a name gives are not always drawn.

Legend:
Experiment in all cases: Method 1: intracellular Ca2+ release (FLIPR, Calcium 5) in recombinant CHO-K1 cells
Format in all cases: cell-based
human S1PR4 receptor = biological target: T1, human S1PR4 receptor (Homo sapiens, UniProt O95977); settings: (1): determined with method 1; read-out: S1P4 EC50
T1 construct: host or cells: CHO-K1
T1 sequence (O95977 1-384): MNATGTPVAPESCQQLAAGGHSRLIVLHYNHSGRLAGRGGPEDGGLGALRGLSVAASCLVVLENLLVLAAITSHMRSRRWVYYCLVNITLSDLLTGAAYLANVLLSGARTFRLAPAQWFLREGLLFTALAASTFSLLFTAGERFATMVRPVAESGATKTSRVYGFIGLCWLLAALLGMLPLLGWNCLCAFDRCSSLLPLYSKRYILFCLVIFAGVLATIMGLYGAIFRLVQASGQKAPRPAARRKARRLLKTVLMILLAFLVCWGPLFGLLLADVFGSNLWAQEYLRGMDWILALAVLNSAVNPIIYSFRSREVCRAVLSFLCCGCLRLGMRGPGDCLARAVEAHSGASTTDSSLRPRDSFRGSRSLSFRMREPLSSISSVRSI
In short: (§1)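 Read-out: FLIPR Tetra fluorescence of Calcium 5-loaded CHO-K1 cells (receptor + aequorin + Gq/i5) after agonist addition at RT. Values are EC50s from nonlinear fits normalized to the phospho-fingolimod reference curve. Buffer HBSS with Ca2+/Mg2+, Hepes, probenecid, 0.1% BSA, pH 7.4.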

human S1PR5 receptor = biological target: T2, human S1PR5 receptor (Homo sapiens, UniProt Q9H228); settings: agonist potency, determined with method 1 (symbols A-D); read-out: S1P5 EC50 range
T2 construct: host or cells: CHO-K1
T2 sequence (Q9H228 whole entry): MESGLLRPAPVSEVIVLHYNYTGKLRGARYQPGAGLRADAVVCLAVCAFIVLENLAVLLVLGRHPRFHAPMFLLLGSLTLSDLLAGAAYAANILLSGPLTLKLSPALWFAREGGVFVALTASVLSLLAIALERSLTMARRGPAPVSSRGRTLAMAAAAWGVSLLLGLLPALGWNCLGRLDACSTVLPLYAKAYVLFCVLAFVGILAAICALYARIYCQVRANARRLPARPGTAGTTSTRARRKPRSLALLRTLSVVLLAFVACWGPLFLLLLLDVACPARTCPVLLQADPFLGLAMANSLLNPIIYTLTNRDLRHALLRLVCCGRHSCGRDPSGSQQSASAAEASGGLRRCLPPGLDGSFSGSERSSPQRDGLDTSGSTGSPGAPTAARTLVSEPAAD
In short: as §1

human S1PR1 receptor = biological target: T3, human S1PR1 receptor (Homo sapiens, UniProt P21453); settings: (1): determined with method 1; read-out: S1P1 EC50
T3 construct: host or cells: CHO-K1
T3 sequence (P21453 whole entry): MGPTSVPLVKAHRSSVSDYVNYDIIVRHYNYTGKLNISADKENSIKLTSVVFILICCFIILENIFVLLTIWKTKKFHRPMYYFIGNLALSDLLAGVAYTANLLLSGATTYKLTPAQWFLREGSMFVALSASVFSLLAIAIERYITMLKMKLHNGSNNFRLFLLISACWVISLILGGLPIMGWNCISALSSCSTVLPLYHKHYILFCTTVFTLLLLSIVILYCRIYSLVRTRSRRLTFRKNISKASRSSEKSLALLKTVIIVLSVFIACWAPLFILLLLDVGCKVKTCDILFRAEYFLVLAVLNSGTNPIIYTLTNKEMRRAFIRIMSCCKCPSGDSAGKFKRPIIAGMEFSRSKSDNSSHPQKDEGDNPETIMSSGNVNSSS
In short: as §1

SMILES | EC50 (human S1PR4 receptor) [nM] | EC50 (human S1PR5 receptor) [nM] | EC50 (human S1PR1 receptor) [nM]
CC(CC(=O)O)CN1CCc2nc(-c3ccc(OCC4CCCCC4)cc3)ncc2C1 (stereo not drawn) [Compound 336, 4-(2-(4-(cyclohexylmethoxy)phenyl)-7,8-dihydropyrido[4,3-d]pyrimidin-6(5H)-yl)-3-methylbutanoic acid] | < 1000 | < 10 | > 1000
CC(CC(=O)O)CN1CCc2nc(-c3ccc(CCc4cccc(Cl)c4)cc3F)ncc2C1 (stereo not drawn) [Compound 292, 4-(2-(4-(3-chlorophenethyl)-2-fluorophenyl)-7,8-dihydropyrido[4,3-d]pyrimidin-6(5H)-yl)-3-methylbutanoic acid] | > 1000 | 100 to 1000 | > 1000
Cc1cc(-c2ncc3c(n2)CCN(C[C@H](C)CC(=O)O)C3)ccc1OCc1ccc(Cl)cc1 [Compound 318, (R)-4-(2-(4-((4-chlorobenzyl)oxy)-3-methylphenyl)-7,8-dihydropyrido[4,3-d]pyrimidin-6(5H)-yl)-3-methylbutanoic acid] | > 1000 | 100 to 1000 | > 1000
O=C(O)C1(CCN2CCc3nc(-c4ccc(OCc5ccc(Cl)cc5)cc4)ncc3C2)CC1 [Compound 335, 1-(2-(2-(4-((4-chlorobenzyl)oxy)phenyl)-7,8-dihydropyrido[4,3-d]pyrimidin-6(5H)-yl)ethyl)cyclopropanecarboxylic acid] | > 1000 | 100 to 1000 | > 1000
CC(CC(=O)O)CN1CCc2nc(-c3ccc(/C=C/c4ccc(Cl)cc4F)cc3)ncc2C1 (stereo not drawn) [Compound 282] | > 1000 | 10 to 100 | > 1000
Cc1cc(-c2ncc3c(n2)CCN(CC(C)CC(=O)O)C3)ccc1OCc1ccccc1C(F)(F)F (stereo not drawn) [Compound 309, 3-methyl-4-[2-[3-methyl-4-[[2-(trifluoromethyl)phenyl]methoxy]phenyl]-7,8-dihydro-5H-pyrido[4,3-d]pyrimidin-6-yl]butanoic acid 2,2,2-trifluoroacetic acid salt] | > 1000 | 100 to 1000 | > 1000
CCc1ccccc1COc1ccc(-c2ncc3c(n2)CCN(CC(C)CC(=O)O)C3)cc1C (stereo not drawn) [Compound 308, 4-[2-[4-[(2-ethylphenyl)methoxy]-3-methyl-phenyl]-7,8-dihydro-5H-pyrido[4,3-d]pyrimidin-6-yl]-3-methyl-butanoic acid 2,2,2-trifluoroacetic acid salt] | < 1000 | 100 to 1000 | > 1000
CC(CC(=O)O)CN1CCc2nc(-c3ccc(OCc4cccc(Cl)c4)cc3)cnc2C1 (stereo not drawn) [Compound 209, 4-(2-(4-((3-chlorobenzyl)oxy)phenyl)-7,8-dihydropyrido[3,4-b]pyrazin-6(5H)-yl)-3-methylbutanoic acid] | > 1000 | < 10 | > 1000
Cc1cc(-c2ncc3c(n2)CCN(C[C@@H](C)CC(=O)O)C3)ccc1OCc1ccccc1 [Compound 261, (S)-4-(2-(4-(benzyloxy)-3-methylphenyl)-7,8-dihydropyrido[4,3-d]pyrimidin-6(5H)-yl)-3-methylbutanoic acid] | > 1000 | 10 to 100 | > 1000
CC(CC(=O)O)CN1CCc2nc(-c3ccc(CCc4ccc(Cl)cc4)cc3F)ncc2C1 (stereo not drawn) [Compound 255, 4-(2-(4-(4-chlorophenethyl)-2-fluorophenyl)-7,8-dihydropyrido[4,3-d]pyrimidin-6(5H)-yl)-3-methylbutanoic acid] | > 1000 | < 10 | > 1000
CC(CC(=O)O)CN1CCc2nc(-c3ccc(/C=C/c4ccc(Cl)cc4)cc3)ncc2C1 (stereo not drawn) [Compound 297, 4-(2-(4-(4-chlorostyryl)phenyl)-7,8-dihydropyrido[4,3-d]pyrimidin-6(5H)-yl)-3-methylbutanoic acid] | > 1000 | 100 to 1000 | > 1000
Cc1ccc(C(F)(F)F)cc1COc1ccc(-c2ncc3c(n2)CCN(CC(C)CC(=O)O)C3)c(F)c1 (stereo not drawn) [Compound 272, 4-[2-[2-fluoro-4-[[2-methyl-5-(trifluoromethyl)phenyl]methoxy]phenyl]-7,8-dihydro-5H-pyrido[4,3-d]pyrimidin-6-yl]-3-methyl-butanoic acid 2,2,2-trifluoroacetic acid salt] | > 1000 | 10 to 100 | > 1000
Cc1ccccc1COc1ccc(-c2ncc3c(n2)CCN(C[C@H](C)CC(=O)O)C3)cc1C [Compound 303] | < 1000 | 100 to 1000 | > 1000
CC(CC(=O)O)CN1Cc2cnc(-c3ccc(OCc4ccc(Cl)cc4)cc3)nc2CC1(C)C (stereo not drawn) [Compound 329, 4-(2-(4-((4-chlorobenzyl)oxy)phenyl)-7,7-dimethyl-7,8-dihydropyrido[4,3-d]pyrimidin-6(5H)-yl)-3-methylbutanoic acid] | > 1000 | 1000 to 10000 | > 1000
C[C@H](CC(=O)O)C(=O)N1CCc2nc(-c3ccc(OCc4ccc(Cl)cc4)cc3)ncc2C1 [Compound 332, (R)-4-(2-(4-((4-chlorobenzyl)oxy)phenyl)-7,8-dihydropyrido[4,3-d]pyrimidin-6(5H)-yl)-3-methyl-4-oxobutanoic acid] | > 1000 | 1000 to 10000 | > 1000
CC(CC(=O)O)CN1CCc2nc(-c3ccc(OCc4ccc(F)cc4)cc3F)ncc2C1 (stereo not drawn) [Compound 298, 4-[2-[2-fluoro-4-[(4-fluorophenyl)methoxy]phenyl]-7,8-dihydro-5H-pyrido[4,3-d]pyrimidin-6-yl]-3-methyl-butanoic acid 2,2,2-trifluoroacetic acid salt] | > 1000 | 100 to 1000 | > 1000
Cc1cc(-c2ncc3c(n2)CCN(CC(C)CC(=O)O)C3)ccc1OCc1c(F)cccc1F (stereo not drawn) [Compound 316, 4-[2-[4-[(2,6-difluorophenyl)methoxy]-3-methyl-phenyl]-7,8-dihydro-5H-pyrido[4,3-d]pyrimidin-6-yl]-3-methyl-butanoic acid 2,2,2-trifluoroacetic acid salt] | < 1000 | 100 to 1000 | > 1000
O=C(O)CC1CC(N2CCc3nc(-c4ccc(OCc5cc(Cl)cc(Cl)c5)cc4)ncc3C2)C1 (stereo not drawn) [Compound 5, 2-(3-(2-(4-((3,5-dichlorobenzyl)oxy)phenyl)-7,8-dihydropyrido[4,3-d]pyrimidin-6(5H)-yl)cyclobutyl)acetic acid] | > 1000 | 100 to 1000 | > 1000
Cc1cc(-c2ncc3c(n2)CCN(CC(C)CC(=O)O)C3)ccc1CCc1ccc(Cl)cc1 (stereo not drawn) [Compound 291, 4-(2-(4-(4-chlorophenethyl)-3-methylphenyl)-7,8-dihydropyrido[4,3-d]pyrimidin-6(5H)-yl)-3-methylbutanoic acid] | > 1000 | 100 to 1000 | > 1000
Cc1ccc(COc2ccc(-c3ncc4c(n3)CCN(CC(C)CC(=O)O)C4)c(F)c2)cc1 (stereo not drawn) [Compound 307, 4-[2-[2-fluoro-4-(p-tolylmethoxy)phenyl]-7,8-dihydro-5H-pyrido[4,3-d]pyrimidin-6-yl]-3-methyl-butanoic acid 2,2,2-trifluoroacetic acid salt] | > 1000 | 100 to 1000 | > 1000
Cc1cc(-c2ncc3c(n2)CCN(CC(C)CC(=O)O)C3)ccc1CCc1cccc(Cl)c1 (stereo not drawn) [Compound 331, 4-(2-(4-(3-chlorophenethyl)-3-methylphenyl)-7,8-dihydropyrido[4,3-d]pyrimidin-6(5H)-yl)-3-methylbutanoic acid] | < 1000 | 1000 to 10000 | > 1000
Cc1ccc(C(F)(F)F)c(COc2ccc(-c3ncc4c(n3)CCN(CC(C)CC(=O)O)C4)c(F)c2)c1 (stereo not drawn) [Compound 290, 4-[2-[2-fluoro-4-[[5-methyl-2-(trifluoromethyl)phenyl]methoxy]phenyl]-7,8-dihydro-5H-pyrido[4,3-d]pyrimidin-6-yl]-3-methyl-butanoic acid 2,2,2-trifluoroacetic acid salt] | > 1000 | 100 to 1000 | > 1000
CC(CC(=O)O)CN1CCc2nc(-c3ccc(CCc4ccccc4)cc3F)ncc2C1 (stereo not drawn) [Compound 280, 4-(2-(2-fluoro-4-phenethylphenyl)-7,8-dihydropyrido[4,3-d]pyrimidin-6(5H)-yl)-3-methylbutanoic acid] | > 1000 | 10 to 100 | > 1000
Cc1cc(-c2ncc3c(n2)CCN(CC(C)CC(=O)O)C3)ccc1OCc1cccc(C(F)(F)F)c1 (stereo not drawn) [Compound 302, 3-methyl-4-[2-[3-methyl-4-[[3-(trifluoromethyl)phenyl]methoxy]phenyl]-7,8-dihydro-5H-pyrido[4,3-d]pyrimidin-6-yl]butanoic acid 2,2,2-trifluoroacetic acid salt] | > 1000 | 100 to 1000 | > 1000
O=C(O)C1CC(N2CCc3nc(C#Cc4ccccc4)c(F)cc3C2)C1 (stereo not drawn) [Compound 184, 3-(3-fluoro-2-(phenylethynyl)-7,8-dihydro-1,6-naphthyridin-6(5H)-yl)cyclobutanecarboxylic acid] | > 1000 | 1000 to 10000 | > 1000
